Consider 2 molecules from patent publication US10100088B2, “Glycopeptide derivatives for the preservation and protection of biological materials and microorganisms” (TFCHEM, priority 2014, dated 2018).

Molecules are shown by their SMILES. “Also recorded” adds a separate entry of the source. Read-outs that look alike come from different tables or passages of the source.

Data set [1] is described as follows: Comparative stability towards basic conditions (NaOD in D2O), 1H NMR. In kind it is physicochemical. On the procedure:
In a first set of experiments (experiments 1 to 7 in table 9), X (10 mg, 1.72 10^−2 mmol) was reacted with 2 to 8 equivalents of NaOD in a total volume of 355 μL of deuterium oxide ([X]=4.8 10^−2 mmol·mL^−1) during 2 h 30 before being acidified with 1M DCl in D2O. To be sure that all compounds in solution are in their acidic form, the equivalents of DCl are adjusted to 3 more equivalents of DCl than the amount required to neutralize the solution (nDCl=nNaOD+3). The volume was adjusted to 544 μL with deuterium oxide.
In a second set of experiments (experiments 8 to 14 in table 9), 17 (10 mg, 1.66 10^−2 mmol) was reacted with 2 to 8 equivalents of NaOD in a total volume of 343 μL of deuterium oxide ([17]=4.8 10^−2 mmol·mL^−1) during 2 h 30 before being acidified with 1M DCl in D2O. To be sure that all compounds in solution are in their acidic form, the equivalents of DCl are adjusted to 3 more equivalents of DCl than the amount required to neutralize the solution (nDCl=nNaOD+3). The volume was adjusted to 526 μL with deuterium oxide.
^1H NMR analyses were performed on each experiment. It is why experiments were realized in deuterium oxide and using 1M NaOD in D2O as base and 1M DCl in D2O as acid.
^1H NMR allows indeed the determination of the amount of compound X1 formed, by comparison between the integration corresponding to the methylene group of the lysine side chain connected to the nitrogen atom in X (CH2NGP) (3.3 ppm) and the integrationof the same methylene group in X1 (CH2Lys hydrolyzed) (3.0 ppm).
To confirm the structure of compounds X1 and X2, resulting from hydrolysis of X, the following experiment was realized, in which X (10 mg, 1.72 10^−2 mmol) was reacted with 8 equivalents of NaOD in a total volume of 355 μL of deuterium oxide ([X]=4.8 10^−2 mmol·mL^−1) during 3 days before being acidified with 1M DCl in D2O. In these conditions, almost the totality of compound X is hydrolyzed, the percentage of hydrolysis of compound X being 85% as determined by ^1H NMR as evidence in table 11.

Data set [2] relates to human nasal epithelial cells (RPMI2650, ATCC CCL-30). In words: Starvation (serum deprivation) stress, neutral red uptake viability. The settings on record: for viability at 10000 µg/mL: Homo sapiens, 10 mg/mL, read-out: Percentage of viability. In kind it is cell-based. How it is done:
(§1) Induced stresses were performed as follow: Starvation
(§2) The neutral red uptake assay was used for the determination of cell viability. This assay is based on the ability of viable cells to incorporate and bind the supravital dye neutral red in its lysosomes. So, only the viable cells are dyed. At different times after the stress assay (T0), the plates were incubated with neutral red solution for 3.5 hours. The cells are subsequently washed, the dye is extracted in each well and the absorbance is read using a spectrophotometer.
(§3) For sampling, 1 mL of DMEM (without phenol red indicator) with neutral red (OD=0.110) was added to the cells for 3.5 hours (37° C., 10% CO2). After incubation, the medium was removed, two washes of PBS were realized and 1 mL of extraction solution (absolute ethanol 49%, ultrapure water 49%, glacial acetic acid 2%) was added. Plates were placed 15 minutes on rotary shaker in the dark before reading OD at 540 nm.
(§4) The OD540 nm average value of positive control was considered as 100% of viability.
(§5) The percentage of viability for each assay was calculated as follow: % viability assay=(OD540 nm of tested solution−blank)*100/(OD540 nm of positive control−blank).

For data set [3], the system named is human neonatal skin fibroblasts (CCD-27SK, ATCC CRL-1475). Described as above. Format: cell-based. The following applies: for Percentage of viability / viability at 5000 µg/mL: 5 mg/mL (Table 2); for viability at 5000 µg/mL: Homo sapiens, CCD-27Sk, read-out: Percentage of viability. On the procedure:
as §1, §2, §3, §4, §5

Data set [4] concerns human neonatal skin fibroblasts. In words: Oxidative stress (H2O2), neutral red uptake viability. The settings on record: for viability at 5000 µg/mL / viability at 10000 µg/mL / viability at 15000 µg/mL: Homo sapiens, Skin fibroblast, read-out: Percentage of viability following oxidative stress; for viability at 5000 µg/mL: 5 mg/mL; for viability at 10000 µg/mL: 10 mg/mL; for viability at 15000 µg/mL: 15 mg/mL. Format: cell-based. On the procedure: as §1
Then oxidative stress was performed as follow: 0.2 ml of solution at 500 μM of H2O2 was added in wells except for negative control where 0.2 ml of culture medium were added.
as §2, §3, §5

The test system is the same in data set [5]. In words: UV stress (11 J/cm^2), neutral red uptake viability. In kind it is cell-based. The settings on record: for viability at 5000 µg/mL / viability at 10000 µg/mL / viability at 15000 µg/mL: Homo sapiens, Skin fibroblast, light or radiation study, read-out: Percentage of viability following UV stress (11 J/cm^2); for viability at 5000 µg/mL: 5 mg/mL; for viability at 10000 µg/mL: 10 mg/mL; for viability at 15000 µg/mL: 15 mg/mL. How it is done:
as §2, §3, §5

Turning to `C[C@H](NC(=O)[C@H](C)NC(=O)[C@@H](N)CCCCNC(=O)C(F)(F)[C@]1(O)O[C@H](CO)[C@H](O)[C@H](O)[C@H]1O)C(=O)O` [Compound X], the “% hydrolyzed” value in data set [1] (2 eq NaOD, 2 h 30, D2O) is given as 2.0%; in data set [1] (3 eq NaOD, 2 h 30, D2O) it was 4.8%; in data set [1] (4 eq NaOD, 2 h 30, D2O) it was 13.0%; in data set [1] (5 eq NaOD, 2 h 30, D2O), 16.0%; in data set [1] (6 eq NaOD, 2 h 30, D2O) it was 19.0%; in data set [1] (7 eq NaOD, 2 h 30, D2O), 20.6%. For the same molecule, the “% hydrolyzed” value turned out to be 22.2% in data set [1] (8 eq NaOD, 2 h 30, D2O); 22% in data set [1] (8 eq NaOD, 2 h 30, D2O, listed as compound X); 0.5% in data set [1] (Control, 0 eq NaOD). The “stability towards basic conditions (in words)” value in data set [1] (2 to 8 eq NaOD, 2 h 30, 1H NMR) is “degradation; also recorded: sensitive to basic medium”. The “% hydrolysis” value is on record as 0.5% in data set [1] (Experiment A, 0 eq NaOD (Table 11)) and 85% in data set [1] (Experiment B, 8 eq NaOD, 3 days, D2O).
Turning to `C[C@H](NC(=O)[C@H](C)NC(=O)[C@@H](N)CCCCNCC(F)(F)C1(O)O[C@H](CO)[C@H](O)[C@H](O)[C@H]1O)C(=O)O` (stereo partly shown) [Compound 19], the viability at 10000 µg/mL in data set [2] (RPMI-2650, D4 after serum deprivation) worked out at 52 ± 4.64%; in data set [2] (RPMI-2650, D6 after serum deprivation), 26%; in data set [4] (1 h after 100 μM H2O2) it was 99 ± 0.5%; in data set [4] (24 h after 100 μM H2O2), 120 ± 2.1%; in data set [5] (1 h after irradiation) it was 70%; in data set [5] (3 h after irradiation) it was 80%. For the same molecule, in data set [5] (24 h after irradiation), the viability at 10000 µg/mL was 116%. In addition, the “preservative/protective effect on human nasal epithelial cells (in words)” value in data set [2] (starvation medium, 10 mg/ml) is “preservative/protective effect”. For the same molecule, the Percentage of viability in data set [3] (D 1 after serum deprivation) is listed as 73%; in data set [3] (D 7 after serum deprivation) it was 50%. For the same molecule, the viability at 5000 µg/mL in data set [3] (D 1 after serum deprivation) was 73 to 87%; in data set [3] (D 4 after serum deprivation), 57%; in data set [3] (D 7 after serum deprivation), 45 to 50%; in data set [4] (1 h after 100 μM H2O2) it was 89 ± 2.7%; in data set [4] (24 h after 100 μM H2O2), 109 ± 2.2%; in data set [5] (1 h after irradiation), 53%. The viability at 5000 µg/mL worked out at 71% in data set [5] (3 h after irradiation) and 89% in data set [5] (24 h after irradiation). Also, the “preservative/protective effect on skin fibroblasts (in words)” value in data set [3] (starvation medium) was “significant preservative/protective effect”. Also, the “preservative/protective effect against oxidative stress (in words)” value in data set [4] (5 to 15 mg/ml) was “preservative/protective effect against oxidative stress which is dose dependant”. In addition, the viability at 15000 µg/mL in data set [4] (1 h after 100 μM H2O2) worked out at 110 ± 2%; in data set [4] (24 h after 100 μM H2O2), 127 ± 5.8%; in data set [5] (1 h after irradiation), 67%; in data set [5] (3 h after irradiation), 80%; in data set [5] (24 h after irradiation) it was 112%. Besides, the “growth/regenerative effect on stressed cells (in words)” value in data set [4] (viability increased in time after H2O2) is listed as “growth/regenerative effect”. For the same molecule, the “preservative/protective effect against UV stress (in words)” value in data set [5] is given as “preservative/protective effect against UV stress”. In addition, the “growth or regenerative effect on stressed cells (in words)” value in data set [5] (viability increased in time after UV) is “growth or regenerative effect”.
